Measured values taken from patent US6476034B2, “Antiviral azaindole derivatives” (priority 2000, dated 2002).

Test system: single-round infectious HIV-1 reporter virus
Assay: microbe, parasite or virus in culture
Type: cell-based
Conditions: for EC50: Human immunodeficiency virus 1, HeLa-CD4/CCR5; for inhibition at 10 µM: Human immunodeficiency virus 1, HeLa-CD4/CCR5, 72 h, read-out: Average % inhibition at or <10 μM; for Average % inhibition at or <10 μM: HeLa CD4 CCR5 cells, luciferase expression 3 days (72 hours) after infection, compounds tested below 10 μM: % inhibition at 10 μM extrapolated with XLfit, mean of at least two experiments

For `C[C@@H]1CN(C(=O)c2ccccc2)CCN1C(=O)C(=O)c1c[nH]c2c(Cl)ccnc12` [Compound 5y, (R)-N-(benzoyl)-3-Methyl-N′-[(7-Chloro-4-azaindol-3-yl)-oxoacetyl]-piperazine], the EC50 was less than 1000 nM and the inhibition at 10 µM was greater than 99%.

`CNc1ccnc2[nH]cc(C(=O)C(=O)N3CCN(C(=O)c4ccccc4)C[C@H]3C)c12` [Compound 17h, (R)-N-(benzoyl)-3-methyl-N′-[(4-methylamino-7-azaindol-3-yl)-oxoacetyl]-piperazine] was tested, and the EC50 was greater than 500 nM.

`COc1ccnc2[nH]cc(C(=O)C(=O)N3CCN(C(=O)c4ccccc4)CC3C)c12` (centres unmarked) [Compound 17e, N-(benzoyl)-3-methyl-N′-[(4-methoxy-7-azaindol-3-yl)-oxoacetyl]-piperazine] gave an EC50 of less than 1000 nM and an inhibition at 10 µM of 94%.

For `COc1cncc2[nH]cc(C(=O)C(=O)N3CCN(C(=O)c4ccccc4)CC3)c12` [Compound 39, N-(benzoyl)-N′-[(4-methoxy-6-azaindol-3-yl)-oxoacetyl]-piperazine], the EC50 was less than 1000 nM.

Molecule `C[C@@H]1CN(C(=O)c2ccccc2)CCN1C(=O)C(=O)c1c[nH]c2nccc(Cl)c12` [Compound 9a, (R)-N-(benzoyl)-3-methyl-N′-[(4-chloro-7-azaindol-3-yl)-oxoacetyl]-piperazine] has an EC50 of less than 1000 nM and an inhibition at 10 µM greater than 99%.

`C[C@@H]1CN(C(=O)c2ccccc2)CCN1C(=O)C(=O)c1c[nH]c2nccc(O)c12` [Compound 5ah, (R)-N-(benzoyl)-3-methyl-N′-[(4-hydroxyl-7-azaindol-3-yl)-oxoacetyl]-piperazine] showed an EC50 greater than 5000 nM.

Molecule `CC1(C)CN(C(=O)c2ccccc2)CCN1C(=O)C(=O)c1c[nH]c2ncccc12` [Compound 5h, N-(benzoyl)-3,3-dimethyl-N′-[(7-azaindol-3-yl)-oxoacetyl]-piperazine] has an EC50 of 1000 to 5000 nM and an inhibition at 10 µM of 80%.

Work on `C[C@@H]1CN(C(=O)c2ccccc2)CCN1C(=O)C(=O)c1c[nH]c2nc(C#N)ccc12` [Compound 12a, (R)-N-(benzoyl)-3-methyl-N′-[(6-cyano-7-azaindol-3-yl)-oxoacetyl]-piperazine] yielded an EC50 of less than 1000 nM and an inhibition at 10 µM greater than 99%.

In the case of `C[C@@H]1CN(C(=O)c2ccccc2)[C@@H](C)CN1C(=O)C(=O)c1c[nH]c2ncccc12` (relative stereo) [Compound 5i, trans-N-(benzoyl)-2,5-dimethyl-N′-[(7-azaindol-3-yl)-oxoacetyl]-piperazine], the EC50 is reported as less than 1000 nM and the inhibition at 10 µM is reported as 89%.

`CC1CN(C(=O)C(=O)c2c[nH]c3ncccc23)CCN1C(=O)c1ccccc1` (centres unmarked) [Compound 5e, N-(benzoyl)-2-methyl-N′-[(7-azaindol-3-yl)-oxoacetyl]-piperazine] was tested, and the EC50 was less than 1000 nM and the inhibition at 10 µM was 80%.

With `C[C@@H]1CN(C(=O)c2ccccc2)CCN1C(=O)C(=O)c1c[nH]c2c1ccc[n+]2[O-]` [Compound 8a, (R)-N-(benzoyl)-3-methyl-N′-[(7-oxide-7-azaindol-3-yl)-oxoacetyl]-piperazine] the “Average % inhibition at or <10 μM” value was 90%.

`C[C@@H]1CN(C(=O)c2ccccc2)CCN1C(=O)C(=O)c1c[nH]c2c(Cl)nccc12` [Compound 5u, (R)-N-(benzoyl)-3-Methyl-N′-[(7-Chloro-6-azaindol-3-yl)-oxoacetyl]-piperazine] showed an EC50 of less than 1000 nM and an inhibition at 10 µM of 99%.

For `CCOc1cc[n+]([O-])c2[nH]cc(C(=O)C(=O)N3CCN(C(=O)c4ccccc4)C[C@H]3C)c12` [Compound 16d, (R)-N-(benzoyl)-3-methyl-N′-[(4-ethoxy-7-oxide-7-azaindol-3-yl)-oxoacetyl]-piperazine], the “Average % inhibition at or <10 μM” value was 88%.

`C[C@@H]1CN(C(=O)c2ccccc2)CCN1C(=O)C(=O)c1c[nH]c2nc(Cl)ccc12` [Compound 9b, (R)-N-(benzoyl)-3-methyl-N′-[(6-chloro-7-azaindol-3-yl)-oxoacetyl]-piperazine] was tested, and the EC50 was less than 1000 nM and the inhibition at 10 µM was greater than 99%.

With `COc1cnc(Cl)c2[nH]cc(C(=O)C(=O)N3CCN(C(=O)c4ccccc4)CC3)c12` [Compound 5an, N-(benzoyl)-N′-[(7-chloro-4-methoxy-6-azaindol-3-yl)-oxoacetyl]piperazine] the EC50 was less than 1000 nM.

`COc1ccnc2[nH]cc(C(=O)C(=O)N3CCN(C(=O)c4ccccc4)C[C@H]3C)c12` [Compound 17a, (R)-N-(benzoyl)-3-methyl-N′-[(4-methoxy-7-azaindol-3-yl)-oxoacetyl]-piperazine] was tested, and the EC50 was less than 1000 nM and the inhibition at 10 µM was greater than 99%.

With `O=C(C(=O)N1CCN(C(=O)c2ccccc2)CC1)c1c[nH]c2c(Cl)nccc12` [Compound 5t, N-(benzoyl)-N′-[(7-Chloro-6-azaindol-3-yl)-oxoacetyl]-piperazine] the EC50 was less than 1000 nM and the inhibition at 10 µM was greater than 99%.

With `COc1ncc(OC)c2c(C(=O)C(=O)N3CCN(C(=O)c4ccccc4)C[C@H]3C)c[nH]c12` [Compound 5ap, ®-N-(benzoyl)-3-methyl-N′-[(4,7-dimethoxy-6-azaindol-3-yl)-oxoacetyl]piperazine] the EC50 was less than 1000 nM.

In the case of `CC(C)C1CN(C(=O)c2ccccc2)CCN1C(=O)C(=O)c1c[nH]c2ncccc12` (centres unmarked) [Compound 5ab, N-(benzoyl)-3-iso-Propyl-N′-[(7-azaindol-3-yl)-oxoacetyl]-piperazine], the EC50 is reported as greater than 500 nM.

Work on `C[C@@H]1CN(C(=O)c2ccccc2)CCN1C(=O)C(=O)c1c[nH]c2cnccc12` [Compound 5r, (R)-N-(benzoyl)-3-Methyl-N′-[(6-azaindol-3-yl)-oxoacetyl]-piperazine] yielded an EC50 of less than 1000 nM and an inhibition at 10 µM greater than 99%.

`COc1cc[n+]([O-])c2[nH]cc(C(=O)C(=O)N3CCN(C(=O)c4ccccc4)C[C@H]3C)c12` [Compound 16a, (R)-N-(benzoyl)-3-methyl-N′-[(4-methoxy-7-oxide-7-azaindol-3-yl)-oxoacetyl]-piperazine] was tested, and the “Average % inhibition at or <10 μM” value was greater than 99%.

For “(R)-N-(benzoyl)-3-methyl-N′-[(4 or 6)-vinyl-7-azaindol-3-yl)-oxoacetyl]-piperazine [Compound 11c]”, the “Average % inhibition at or <10 μM” value was 48%.

Work on `C=CCn1cc(C(=O)C(=O)N2CCN(C(=O)c3ccccc3)C[C@H]2C)c2cccnc21` [Compound 21b, (R)-N-(benzoyl)-3-methyl-N′-[(1-allyl-7-azaindol-3-yl)-oxoacetyl]-piperazine] yielded an EC50 of less than 1000 nM and an inhibition at 10 µM of 95%.

`C[C@@H]1CN(c2ccc(Br)o2)CCN1C(=O)C(=O)c1c[nH]c2ncccc12` [Compound 5l, (R)-N-(5-bromo-furan-2-yl)-3-methyl-N′-[(7-azaindol-3-yl)-oxoacetyl]-piperazine] showed an EC50 of less than 1000 nM and an inhibition at 10 µM greater than 99%.

Molecule `O=C(C(=O)N1CCN(C(=O)c2ccccc2)CC1)c1c[nH]c2cnccc12` [Compound 5p, N-(benzoyl)-N′-[(6-azaindol-3-yl)-oxoacetyl]-piperazine] has an EC50 greater than 500 nM and an inhibition at 10 µM of 40%.

`C[C@@H]1CN(C(=O)c2ccccc2)CCN1C(=O)C(=O)c1c[nH]c2nccc(OCC(F)(F)F)c12` [Compound 17b, (R)-N-(benzoyl)-3-methyl-N′-[(4-(2,2,2-trifluoroethoxy)-7-azaindol-3-yl)-oxoacetyl]-piperazine] gave an EC50 of less than 1000 nM and an inhibition at 10 µM of 99%.

With `CCC1CN(C(=O)c2ccccc2)CCN1C(=O)C(=O)c1c[nH]c2ncccc12` (centres unmarked) [Compound 5g, N-(benzoyl)-3-ethyl-N′-[(7-azaindol-3-yl)-oxoacetyl]-piperazine] the EC50 was less than 1000 nM and the inhibition at 10 µM was 70%.
